{
  "source": "patent US20240252580A1",
  "about": "“AMINO ACID HYDRATION FORMULATION AND METHOD OF USE” (The Coca-Cola Company, priority 2021, published 2024)",
  "origin": "cited, not measured here",
  "settings": "for effect on sodium and water absorption from the human jejunum: perfusion technique; for dependence of sodium and water absorption on amino acid concentration: saturation not demonstrated over the range of concentrations",
  "note": "Peptide text beside a SMILES is read from it.",
  "data": [
    {"smiles": "C[C@H](N)C(=O)O", "note": "[alanine]", "values": [
      {"measurement": "effect on sodium and water absorption from the human jejunum", "value": "significant stimulation"},
      {"measurement": "dependence of sodium and water absorption on amino acid concentration", "value": "increased linearly with increasing concentration"}
    ]},
    {"smiles": "NCC(=O)O", "note": "[glycine]", "values": [
      {"measurement": "effect on sodium and water absorption from the human jejunum", "value": "significant stimulation"},
      {"measurement": "dependence of sodium and water absorption on amino acid concentration", "value": "increased linearly with increasing concentration"}
    ]},
    {"smiles": "C[C@H](NC(=O)CN)C(=O)O", "note": "[Gly-Ala, glycyl-L-alanine] (H-Gly-Ala-OH)", "values": [
      {"measurement": "effect on sodium and water absorption from the human jejunum", "value": "significant stimulation"}
    ]},
    {"smiles": "NCC(=O)NCC(=O)O", "note": "[Gly-Gly, glycyl-glycine] (H-Gly-Gly-OH)", "values": [
      {"measurement": "effect on sodium and water absorption from the human jejunum", "value": "significant stimulation"}
    ]}
  ]
}
